According to ChEMBL document CHEMBL5380866, “Discovery of Selective P2Y6R Antagonists with High Affinity and In Vivo Efficacy for Inflammatory Disease Therapy” (J Med Chem, 2023):
Calls of active or inactive are those of the source. No cut-off for these calls is given here.

Tests used:
Mus musculus [1] = assay: Anti-inflammatory activity against LPS-induced acute lung injury C57BL/6J mouse model assessed as reduction in inflammatory infiltration in BALF administered IT(Intratracheal) pretreated with LPS followed by compound addition and measured after 12 hrs; type: functional, organism-based; conditions: dose 1-5 mg/kg
[2] = Cmax in Sprague-Dawley rat at 2 mg/kg, iv measured at 3 to 480 mins by LC-MS/MS analysis; type: ADME, organism-based; set-up: time upper 480 min, time lower 3 min, dose 2 mg/kg, route iv; conditions: in vivo
[3] = AUC (0 to t) in Sprague-Dawley rat at 20 mg/kg, po measured at 10 to 720 mins by LC-MS/MS analysis; type: ADME, organism-based; set-up: time upper 720 min, time lower 10 min, dose 20 mg/kg, route po; conditions: in vivo
[4] = Clearance in Sprague-Dawley rat at 2 mg/kg, iv measured at 3 to 480 mins by LC-MS/MS analysis; type: ADME, organism-based; conditions: in vivo, time 3-480 min
Mus musculus [5] = assay: Anti-inflammatory activity against DSS-induced acute ulcerative colitis intrarectal dosed C57BL/6J mouse model assessed as […] claudin-1 expression at high dose measured after 8 hrs by Western blot analysis; type: functional, organism-based; conditions: route rec
Mus musculus [6] = assay: Anti-inflammatory activity against LPS-induced acute lung injury C57BL/6J mouse model assessed as decrease in IL-1beta secretion in BALF 1 to 5 mg/kg, IT(Intratracheal) pretreated with LPS followed by compound addition and measured after 12 hrs ELISA analysis; type: functional, organism-based; conditions: dose 1-5 mg/kg
Mus musculus [7] = assay: Inhibition of NLRP3 inflammasome activation in DSS-induced acute ulcerative colitis intrarectal dosed C57BL/6J mouse model assessed as decrease in colon caspase-1 expression measured after 8 hrs by Western blot analysis; type: functional, organism-based; conditions: route rec
HT-29 = assay: Cytotoxicity against human HT-29 cells assessed as inhibition of cell growth at below 10 uM incubated for 12 to 24 hrs by CCK-8 assay; type: functional, cell-based; conditions: time 12-24 hrs
Mus musculus [8] = assay: Anti-inflammatory activity against LPS-induced acute lung injury C57BL/6J mouse model assessed as reversal of increase in TLR4 expression level 1 to 5 mg/kg, IT(Intratracheal) pretreated with LPS followed by compound addition and measured after 12 hrs by Western blot analysis; type: functional, organism-based; conditions: dose 1-5 mg/kg
Mus musculus [9] = assay: Anti-inflammatory activity against DSS-induced acute ulcerative colitis intrarectal dosed C57BL/6J mouse model assessed as decrease in crypt necrosis administered daily from 1 to 7 days by H and E staining based microscopic analysis; type: functional, organism-based; conditions: route rec, time 1-7 day
P2Y purinoceptor 6 [10] = biological target: T1, P2Y purinoceptor 6 (Homo sapiens, UniProt Q15077); assay: Binding affinity to human recombinant P2Y6R assessed as dissociation constant by grating-coupled interferometry analysis
T1 sequence (Q15077 whole entry): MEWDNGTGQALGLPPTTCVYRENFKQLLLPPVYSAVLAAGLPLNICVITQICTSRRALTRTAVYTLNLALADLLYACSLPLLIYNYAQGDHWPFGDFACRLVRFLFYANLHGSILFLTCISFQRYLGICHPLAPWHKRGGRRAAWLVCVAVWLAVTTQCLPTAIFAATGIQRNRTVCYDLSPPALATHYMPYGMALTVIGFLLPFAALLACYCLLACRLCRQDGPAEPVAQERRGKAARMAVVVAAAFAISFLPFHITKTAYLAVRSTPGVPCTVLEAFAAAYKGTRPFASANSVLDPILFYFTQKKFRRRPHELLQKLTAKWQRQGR

Mus musculus [11] = assay: Anti-inflammatory activity against LPS-induced acute lung injury C57BL/6J mouse model assessed as restoration of lung structure at 1 to 5 mg/kg, IT(Intratracheal) pretreated with LPS followed by compound addition and measured after 12 hrs by H and E staining based microscopic analysis; type: functional, organism-based; conditions: dose 1-5 mg/kg
Mus musculus [12] = assay: Anti-inflammatory activity against DSS-induced acute ulcerative colitis intrarectal dosed C57BL/6J mouse model assessed as reduction in inflammatory infiltration administered daily from 1 to 7 days by H and E staining based microscopic analysis; type: functional, organism-based; conditions: route rec, time 1-7 day
Mus musculus [13] = assay: Anti-inflammatory activity against LPS-induced acute lung injury C57BL/6J mouse model assessed as decrease in TNF-alpha secretion in BALF 1 to 5 mg/kg, IT(Intratracheal) pretreated with LPS followed by compound addition and measured after 12 hrs ELISA analysis; type: functional, organism-based; conditions: dose 1-5 mg/kg
Mus musculus [14] = assay: Anti-inflammatory activity against LPS-induced acute lung injury C57BL/6J mouse model assessed as reversal of increase in ERK-phosphorylation level 1 to 5 mg/kg, IT(Intratracheal) pretreated with LPS followed by compound addition and measured after 12 hrs by Western blot analysis; type: functional, organism-based; conditions: dose 1-5 mg/kg
Mus musculus [15] = assay: Anti-inflammatory activity against LPS-induced acute lung injury C57BL/6J mouse model assessed as decrease in lung IL-1beta mRNA expression level 1 to 5 mg/kg, IT(Intratracheal) pretreated with LPS followed by compound addition and measured after 12 hrs RT-PCR analysis; type: functional, organism-based; conditions: dose 1-5 mg/kg
Mus musculus [16] = assay: Anti-inflammatory activity against DSS-induced acute ulcerative colitis intrarectal dosed C57BL/6J mouse model assessed as […] Occludin expression at high dose measured after 8 hrs by Western blot analysis; type: functional, organism-based; conditions: route rec
Mus musculus [17] = assay: Anti-inflammatory activity against DSS-induced acute ulcerative colitis intrarectal dosed C57BL/6J mouse model assessed as decrease in goblet cells administered daily from 1 to 7 days by H and E staining based microscopic analysis; type: functional, organism-based; conditions: route rec, time 1-7 day
[18] = Cmax in Sprague-Dawley rat at 20 mg/kg, po measured at 10 to 720 mins by LC-MS/MS analysis; type: ADME, organism-based; set-up: time upper 720 min, dose 20 mg/kg, time lower 10 min, route po; conditions: in vivo
Mus musculus [19] = assay: Anti-inflammatory activity against DSS-induced acute ulcerative colitis intrarectal dosed C57BL/6J mouse model assessed as decrease in mucosal damage administered daily from 1 to 7 days by H and E staining based microscopic analysis; type: functional, organism-based; conditions: route rec, time 1-7 day
[20] = MRT in Sprague-Dawley rat at 2 mg/kg, iv measured at 3 to 480 mins by LC-MS/MS analysis; type: ADME, organism-based; conditions: in vivo, time 3-480 min
Mus musculus [21] = assay: Anti-inflammatory activity against DSS-induced acute ulcerative colitis intrarectal dosed C57BL/6J mouse model assessed as […] length administered daily from 1 to 7 days; type: functional, organism-based; conditions: route rec, time 1-7 day
Mus musculus [22] = assay: Inhibition of NLRP3 inflammasome activation in DSS-induced acute ulcerative colitis intrarectal dosed C57BL/6J mouse model assessed as decrease in colon ASC expression measured after 8 hrs by Western blot analysis; type: functional, organism-based; conditions: route rec
[23] = Oral bioavailability in Sprague-Dawley rat at 20 mg/kg measured at 10 to 720 mins by LC-MS/MS analysis; type: ADME, organism-based; conditions: in vivo, time 10-720 min
Mus musculus [24] = assay: Anti-inflammatory activity against LPS-induced acute lung injury C57BL/6J mouse model assessed as reduction in pulmonary edema administered IT(Intratracheal) pretreated with LPS followed by compound addition and measured after 12 hrs; type: functional, organism-based; conditions: dose 1-5 mg/kg
[25] = Volume of distribution in Sprague-Dawley rat at 2 mg/kg, iv measured at 3 to 480 mins by LC-MS/MS analysis; type: ADME, organism-based; conditions: in vivo, time 3-480 min
Mus musculus [26] = assay: Anti-inflammatory activity against DSS-induced acute ulcerative colitis intrarectal dosed C57BL/6J mouse model assessed as decrease in spleen index administered daily from 1 to 7 days; type: functional, organism-based; conditions: route rec, time 1-7 day
Mus musculus [27] = assay: Inhibition of NLRP3 inflammasome activation in DSS-induced acute ulcerative colitis intrarectal dosed C57BL/6J mouse model assessed as decrease in colon NLRP3 expression measured after 8 hrs by Western blot analysis; type: functional, organism-based; conditions: route rec
[28] = AUC (0 to t) in Sprague-Dawley rat at 2 mg/kg, iv measured at 3 to 480 mins by LC-MS/MS analysis; type: ADME, organism-based; set-up: dose 2 mg/kg, time 3-480 min, route iv; conditions: in vivo
[29] = Half life in Sprague-Dawley rat at 20 mg/kg, po measured at 10 to 720 mins by LC-MS/MS analysis; type: ADME, organism-based; conditions: in vivo, time 10-720 min
Mus musculus [30] = assay: Anti-inflammatory activity against LPS-induced acute lung injury C57BL/6J mouse model assessed as reversal of increase in MyD88 expression level 1 to 5 mg/kg, IT(Intratracheal) pretreated with LPS followed by compound addition and measured after 12 hrs by Western blot analysis; type: functional, organism-based; conditions: dose 1-5 mg/kg
Mus musculus [31] = assay: Anti-inflammatory activity against LPS-induced acute lung injury C57BL/6J mouse model assessed as reduction in inflammatory infiltration in lung at 1 to 5 mg/kg, IT(Intratracheal) pretreated with LPS followed by compound addition and measured after 12 hrs by H and E staining based microscopic analysis; type: functional, organism-based; conditions: dose 1-5 mg/kg
Mus musculus [32] = assay: Anti-inflammatory activity against LPS-induced acute lung injury C57BL/6J mouse model assessed as decrease in lung TNF-alpha mRNA expression level 1 to 5 mg/kg, IT(Intratracheal) pretreated with LPS followed by compound addition and measured after 12 hrs RT-PCR analysis; type: functional, organism-based; conditions: dose 1-5 mg/kg
[33] = Tmax in Sprague-Dawley rat at 20 mg/kg, po measured at 10 to 720 mins by LC-MS/MS analysis; type: ADME, organism-based; conditions: in vivo, time 10-720 min
A549 = assay: Cytotoxicity against human A549 cells assessed as inhibition of cell growth at below 10 uM incubated for 12 hrs by CCK-8 assay; type: functional, cell-based
Mus musculus [34] = assay: Anti-inflammatory activity against DSS-induced acute ulcerative colitis intrarectal dosed C57BL/6J mouse model assessed as […] ZO-1 expression at high dose measured after 8 hrs by Western blot analysis; type: functional, organism-based; conditions: route rec
[35] = Half life in Sprague-Dawley rat at 2 mg/kg, iv measured at 3 to 480 mins by LC-MS/MS analysis; type: ADME, organism-based; conditions: in vivo, time 3-480 min
Mus musculus [36] = assay: Anti-inflammatory activity against LPS-induced acute lung injury C57BL/6J mouse model assessed as reversal of increase in p-38 phosphorylation level 1 to 5 mg/kg, IT(Intratracheal) pretreated with LPS followed by compound addition and measured after 12 hrs by Western blot analysis; type: functional, organism-based; conditions: dose 1-5 mg/kg
P2Y purinoceptor 6 [37] = biological target: T1, P2Y purinoceptor 6; assay: Antagonist activity at human P2Y6R expressed in HEK293 cells assessed as inhibition of UDP-induced IP3 production preincubated for 0.5 hrs followed by UDP stimulation and measured after 12 hrs by ELISA analysis; type: functional, cell-based

For `CC(C)(C)n1nc(-c2nc3cc(Cl)ccc3[nH]2)cc1-c1ccco1`, the Activity (Mus musculus [1]) was “Dose-Dependent Effect”, the Cmax [2] was 1050 ng/mL and the AUC(0-t) [3] was 415 ng·h/mL. For the same compound, the clearance [4] was 130 mL/min/kg, the Activity (Mus musculus [5]) was “Active” and the Activity (Mus musculus [6]) was “Active”. For the same compound, the inhibition (Mus musculus [7]) was “Active”, the inhibition (HT-29) was “inactive” and the Activity (Mus musculus [8]) was “Active”. The Activity (Mus musculus [9]) was “Active”, the Kd (P2Y purinoceptor 6 [10]) was 3.47 µM and the Activity (Mus musculus [11]) was “Active”. For the same compound, the Activity (Mus musculus [12]) was “Active”, the Activity (Mus musculus [13]) was “Active” and the Activity (Mus musculus [14]) was “Active”. For the same compound, the Activity (Mus musculus [15]) was “Active”, the Activity (Mus musculus [16]) was “Active” and the Activity (Mus musculus [17]) was “Active”. For the same compound, the Cmax [18] was 53.7 ng/mL, the Activity (Mus musculus [19]) was “Active” and the MRT [20] was 0.575 h. For the same compound, the Activity (Mus musculus [21]) was “Dose-Dependent Effect”, the inhibition (Mus musculus [22]) was “Active” and the bioavailability [23] was 15.9%. The Activity (Mus musculus [24]) was “Dose-Dependent Effect”, the Vd [25] was 20.1 L/kg and the Activity (Mus musculus [26]) was “Dose-Dependent Effect”. For the same compound, the inhibition (Mus musculus [27]) was “Active”, the AUC(0-t) [28] was 261 ng·h/mL and the half-life [29] was 6.46 h. For the same compound, the Activity (Mus musculus [30]) was “Active”, the Activity (Mus musculus [31]) was “Active” and the Activity (Mus musculus [32]) was “Active”. For the same compound, the Tmax [33] was 2 h, the inhibition (A549) was “inactive” and the Activity (Mus musculus [34]) was “Active”. For the same compound, the half-life [35] was 1.81 h, the Activity (Mus musculus [36]) was “Active” and the IC50 (P2Y purinoceptor 6 [37]) was 0.00591 µM.
